Tests used:
C. elegans Slo-1a = C. elegans Slo-1a (Caenorhabditis elegans, UniProt Q95V25); details: pE50 (negative decadic logarithm of EC50), CHO cells expressing C. elegans Slo-1a, voltage sensitive dye
[1] = test system: Dirofilaria immitis microfilariae; experiment: In vitro assay 3: Dirofilaria immitis microfilariae (DIROIM L1), motility; details: 72 h, read-out: EC50 (reduction of motility), 72 h incubation
[2] = test system: Litomosoides sigmodontis third-stage larvae; details: 72 h, read-out: EC50 (reduction of motility)
Method: In Vitro Assay 5: Litomosoides sigmodontis (LTMOSI L3)
10 Litomosoides sigmodontis third-stage larvae, which were freshly isolated from the pleural cavity of an infected rodent, were added to wells of a microtitre plate containing a nutrient medium and the test compound in DMSO. Compounds were tested in concentration-response assay in duplicate. Larvae exposed to DMSO and no test compounds were used as negative controls. Larvae were evaluated after 72 h of incubation with the compound. Efficacy was determined as the reduction of motility in comparison to the negative control. Based on the evaluation of a wide concentration range, concentration-response curves as well as EC50-values were calculated.

[3] = test system: Dirofilaria immitis third-stage larvae; experiment: In vitro assay 4: Dirofilaria immitis (DIROIM L4), motility; details: 72 h, read-out: EC50 (reduction of motility)
Haemonchus contortus = details: 120 h, read-out: activity (larval mortality)
Method: In Vitro Assay 7: Haemonchus contortus (HAEMCO L3)
Solvent: dimethyl sulfoxide
Approximately 40 larvae of the red stomach worm (Haemonchus contortus) are transferred into a test tube containing compound solution.
After 5 days the percentage of larval mortality is recorded. 100% efficacy means all larvae are killed, 0% efficacy means no larvae are killed.

[4] = test system: Nippostrongylus brasiliensis; experiment: In vitro assay 2: Nippostrongylus brasiliensis (NIPOBR), acetylcholine esterase readout; details: read-out: activity (reduction of AChE compared to negative control); for inhibition at 1 µg/mL: 1 μg/ml; for inhibition at 10 µg/mL: 10 μg/ml
Method in brief: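 Readout was acetylcholine esterase activity released into the medium, compared with negative control, after exposing adult worms to compounds at final 10 ppm (10 μg/ml) or 1 ppm (1 μg/ml). Worms were first washed in antibiotic/amphotericin B-containing saline; compounds were dissolved in DMSO.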

Cooperia curticei = details: Cooperia curticei, 120 h, read-out: activity (larval mortality)
Method: In Vitro Assay 6: Cooperia curticei (COOPCU L3)
Solvent: dimethyl sulfoxide
Approximately 40 nematode larvae (Cooperia curticei) are transferred into a test tube containing the compound solution.
After 5 days percentage of larval mortality is recorded. 100% efficacy means all larvae are killed; 0% efficacy means no larvae are killed.

[5] = log P by HPLC on reversed phase columns (Method L0)
Method: Measurement of log P values was performed according to EEC directive 79/831 Annex V.A8 by HPLC (High Performance Liquid Chromatography) on reversed phase columns with the following methods: • ^[a] log P value is determined by measurement of LC-UV, in an acidic range, with 0.1% formic acid in water and acetonitrile as eluent (linear gradient from 10% acetonitrile to 95% acetonitrile). • ^[b] log P value is determined by measurement of LC-UV, in a neutral range, with 0.001 molar ammonium acetate solution in water and acetonitrile as eluent (linear gradient from 10% acetonitrile to 95% acetonitrile).
Calibration was done with straight-chain alkan-2-ones (with 3 to 16 carbon atoms) with known log P values (measurement of log P values using retention times with linear interpolation between successive alkanones).

C. elegans Slo-1a, sequence (Q95V25 whole entry): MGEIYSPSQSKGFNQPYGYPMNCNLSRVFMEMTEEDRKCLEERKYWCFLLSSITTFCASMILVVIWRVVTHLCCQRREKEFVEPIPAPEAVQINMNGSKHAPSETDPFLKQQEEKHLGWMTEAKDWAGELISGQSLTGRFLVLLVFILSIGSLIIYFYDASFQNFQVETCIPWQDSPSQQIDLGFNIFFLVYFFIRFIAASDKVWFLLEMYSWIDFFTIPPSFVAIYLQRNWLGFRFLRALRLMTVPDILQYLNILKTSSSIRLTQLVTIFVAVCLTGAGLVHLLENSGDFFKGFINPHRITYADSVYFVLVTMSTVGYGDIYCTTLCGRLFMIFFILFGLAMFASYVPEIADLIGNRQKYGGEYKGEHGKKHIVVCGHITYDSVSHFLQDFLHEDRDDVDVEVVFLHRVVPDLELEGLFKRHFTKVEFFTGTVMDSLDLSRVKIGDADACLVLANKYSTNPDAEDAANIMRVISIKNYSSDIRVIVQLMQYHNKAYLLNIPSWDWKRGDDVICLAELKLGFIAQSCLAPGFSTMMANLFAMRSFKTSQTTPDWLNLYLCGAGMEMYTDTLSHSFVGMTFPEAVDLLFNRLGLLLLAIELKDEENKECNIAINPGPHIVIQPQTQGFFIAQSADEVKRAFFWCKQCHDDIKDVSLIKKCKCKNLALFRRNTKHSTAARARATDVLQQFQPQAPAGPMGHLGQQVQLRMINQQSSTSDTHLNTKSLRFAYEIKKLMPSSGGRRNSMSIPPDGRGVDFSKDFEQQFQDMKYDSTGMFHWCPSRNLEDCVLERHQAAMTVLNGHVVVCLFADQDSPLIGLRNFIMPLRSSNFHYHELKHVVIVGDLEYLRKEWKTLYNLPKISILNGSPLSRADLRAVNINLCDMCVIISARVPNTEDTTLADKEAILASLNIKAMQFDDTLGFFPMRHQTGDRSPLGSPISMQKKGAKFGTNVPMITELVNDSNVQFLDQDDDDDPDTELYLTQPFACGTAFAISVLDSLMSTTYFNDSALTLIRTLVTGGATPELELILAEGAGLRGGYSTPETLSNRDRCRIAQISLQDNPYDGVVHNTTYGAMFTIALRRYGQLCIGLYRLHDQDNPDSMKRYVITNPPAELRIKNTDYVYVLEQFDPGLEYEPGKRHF

SMILES: O=C(N[C@H]1CCc2ccccc21)c1cnc2c(-c3cc(Cl)cc(Cl)c3)cccc2c1Cl [Example 3, 4-chloro-8-(3,5-dichlorophenyl)-N-[(1S)-2,3-dihydro-1H-inden-1-yl]quinoline-3-carboxamide]
- EC50 (C. elegans Slo-1a): 3.16 to 31.6 nM
- EC50 [1]: < 1 µg/mL
- EC50 [2]: < 1 µg/mL
- EC50 [3]: < 1 µg/mL

SMILES: Cc1cc(-c2cc(Cl)cc(Cl)c2)c2ncc(C(=O)N[C@H]3CCOc4ccccc43)c(N(C)C)c2c1 [Example 12]
- mortality at 20 ppm (Haemonchus contortus): 80%
- EC50 (C. elegans Slo-1a): < 3.16 nM
- inhibition at 1 µg/mL [4]: > 80%
- inhibition at 10 µg/mL [4]: > 80%
- EC50 [1]: < 0.1 µg/mL
- EC50 [2]: < 0.1 µg/mL
- EC50 [3]: < 0.1 µg/mL

SMILES: O=C(N[C@H]1CCOc2ccccc21)c1cnc2c(-c3cc(Cl)cc(Cl)c3)cccc2c1N1CCOCC1 [Example 17]
- mortality at 4 ppm (Haemonchus contortus): 100%
- mortality at 20 ppm (Haemonchus contortus): 100%
- EC50 (C. elegans Slo-1a): < 3.16 nM
- inhibition at 1 µg/mL [4]: > 80%
- inhibition at 10 µg/mL [4]: > 80%
- EC50 [1]: < 0.1 µg/mL
- mortality at 4 ppm (Cooperia curticei): 100%
- mortality at 20 ppm (Cooperia curticei): 100%
- EC50 [2]: < 0.1 µg/mL
- EC50 [3]: < 0.1 µg/mL

SMILES: CNc1c(C(=O)N[C@H]2CCOc3ccccc32)cnc2c(-c3cc(Cl)cc(Cl)c3)cccc12 [Example 24]
- mortality at 4 ppm (Haemonchus contortus): 100%
- mortality at 20 ppm (Haemonchus contortus): 100%
- EC50 (C. elegans Slo-1a): < 3.16 nM
- inhibition at 1 µg/mL [4]: > 80%
- inhibition at 10 µg/mL [4]: > 80%
- EC50 [1]: < 0.1 µg/mL
- mortality at 4 ppm (Cooperia curticei): 100%
- mortality at 20 ppm (Cooperia curticei): 100%
- EC50 [2]: < 0.1 µg/mL
- EC50 [3]: < 0.1 µg/mL

SMILES: CN(C)c1c(C(=O)N[C@H]2CCOc3ccccc32)cnc2c(-c3cc(Cl)ccc3F)cccc12 [Example 37]
- mortality at 4 ppm (Haemonchus contortus): 100%
- mortality at 20 ppm (Haemonchus contortus): 100%
- EC50 (C. elegans Slo-1a): < 3.16 nM
- inhibition at 1 µg/mL [4]: > 80%
- inhibition at 10 µg/mL [4]: > 80%
- EC50 [1]: < 0.1 µg/mL
- mortality at 4 ppm (Cooperia curticei): 100%
- mortality at 20 ppm (Cooperia curticei): 100%
- EC50 [2]: < 0.1 µg/mL
- EC50 [3]: < 0.1 µg/mL

SMILES: O=C(N[C@H]1CCOc2ccccc21)c1cnc2c(-c3cccc(Cl)c3Cl)cccc2c1N1CCOCC1 [Example 52, 8-(2,3-dichlorophenyl)-N-[(4S)-3,4-dihydro-2H-chromen-4-yl]-4-(morpholin-4-yl)quinoline-3-carboxamide]
- mortality at 4 ppm (Haemonchus contortus): 100%
- mortality at 20 ppm (Haemonchus contortus): 100%
- EC50 (C. elegans Slo-1a): < 3.16 nM
- inhibition at 1 µg/mL [4]: > 80%
- inhibition at 10 µg/mL [4]: > 80%
- EC50 [1]: < 0.1 µg/mL
- mortality at 4 ppm (Cooperia curticei): 100%
- mortality at 20 ppm (Cooperia curticei): 100%
- EC50 [2]: < 0.1 µg/mL
- EC50 [3]: < 0.1 µg/mL

SMILES: COc1c(F)ccc(-c2cccc3c(N4CCOCC4)c(C(=O)N[C@H]4CCOc5ccccc54)cnc23)c1F [Example 53]
- mortality at 4 ppm (Haemonchus contortus): 80%
- mortality at 20 ppm (Haemonchus contortus): 100%
- EC50 (C. elegans Slo-1a): < 3.16 nM
- inhibition at 1 µg/mL [4]: > 80%
- inhibition at 10 µg/mL [4]: > 80%
- EC50 [1]: < 0.1 µg/mL
- mortality at 4 ppm (Cooperia curticei): 100%
- mortality at 20 ppm (Cooperia curticei): 100%
- EC50 [2]: < 0.1 µg/mL
- EC50 [3]: < 0.1 µg/mL

SMILES: CN(C)c1c(C(=O)N[C@H]2CCOc3ccccc32)cnc2c(-c3cccc4[nH]ccc34)cccc12 [Example 73]
- EC50 (C. elegans Slo-1a): 3.16 to 31.6 nM
- inhibition at 1 µg/mL [4]: > 80%
- inhibition at 10 µg/mL [4]: > 80%
- EC50 [1]: < 0.1 µg/mL
- EC50 [2]: < 1 µg/mL
- EC50 [3]: < 0.1 µg/mL

SMILES: CCOc1c(C(=O)N[C@H]2CCc3ccccc32)cnc2c(-c3cc(Cl)cc(Cl)c3)cccc12 [Example 134, 8-(3,5-dichlorophenyl)-N-[(1S)-2,3-dihydro-1H-inden-1-yl]-4-ethoxyquinoline-3-carboxamide]
- mortality at 4 ppm (Haemonchus contortus): 100%
- mortality at 20 ppm (Haemonchus contortus): 100%
- inhibition at 1 µg/mL [4]: > 80%
- inhibition at 10 µg/mL [4]: > 80%
- EC50 [1]: < 0.1 µg/mL
- mortality at 4 ppm (Cooperia curticei): 100%
- mortality at 20 ppm (Cooperia curticei): 100%
- EC50 [2]: < 0.1 µg/mL
- EC50 [3]: < 0.1 µg/mL

SMILES: O=C(N[C@H]1CCOc2ccccc21)c1cnc2c(-c3cc(Cl)cc(Cl)c3)cccc2c1N1CCC1 [Example 135, 4-(azetidin-1-yl)-8-(3,5-dichlorophenyl)-N-[(4S)-3,4-dihydro-2H-chromen-4-yl]quinoline-3-carboxamide]
- mortality at 4 ppm (Haemonchus contortus): 90%
- mortality at 20 ppm (Haemonchus contortus): 100%
- chromatographic logP [5]: 1.9
- EC50 (C. elegans Slo-1a): < 3.16 nM
- inhibition at 1 µg/mL [4]: > 80%
- inhibition at 10 µg/mL [4]: > 80%
- EC50 [1]: < 1 µg/mL
- mortality at 20 ppm (Cooperia curticei): 80%

SMILES: CCOC(=O)CN(C)c1c(C(=O)N[C@H]2CCOc3ccccc32)cnc2c(-c3cc(Cl)cc(Cl)c3)cccc12 [Example 137, ethyl N-{8-(3,5-dichlorophenyl)-3-[(4S)-3,4-dihydro-2H-chromen-4-ylcarbamoyl]quinolin-4-yl}-N-methylglycinate]
- mortality at 20 ppm (Haemonchus contortus): 80%
- chromatographic logP [5]: 4.8
- EC50 (C. elegans Slo-1a): < 3.16 nM
- inhibition at 1 µg/mL [4]: > 80%
- inhibition at 10 µg/mL [4]: > 80%
- EC50 [1]: < 1 µg/mL

SMILES: CN(C)c1c(C(=O)N[C@H]2CCOc3ccccc32)cnc2c(-c3cccc(Cl)c3)c(F)ccc12 [Example 141, 8-(3-chlorophenyl)-N-[(4S)-3,4-dihydro-2H-chromen-4-yl]-4-(dimethyl-amino)-7-fluoroquinoline-3-carboxamide]
- EC50 (C. elegans Slo-1a): < 3.16 nM
- inhibition at 10 µg/mL [4]: > 80%
- EC50 [1]: < 0.1 µg/mL
- EC50 [2]: < 0.1 µg/mL
- EC50 [3]: < 0.1 µg/mL

SMILES: O=C(N[C@H]1CCOc2ccccc21)c1cnc2c(-c3cc(F)cc(Cl)c3)c(F)ccc2c1N1CCOCC1 [Example 143]
- mortality at 4 ppm (Haemonchus contortus): 100%
- mortality at 20 ppm (Haemonchus contortus): 100%
- EC50 (C. elegans Slo-1a): < 3.16 nM
- inhibition at 1 µg/mL [4]: > 80%
- inhibition at 10 µg/mL [4]: > 80%
- EC50 [1]: < 0.1 µg/mL
- mortality at 4 ppm (Cooperia curticei): 100%
- mortality at 20 ppm (Cooperia curticei): 100%
- EC50 [2]: < 0.1 µg/mL
- EC50 [3]: < 0.1 µg/mL

SMILES: CN(CC(=O)O)c1c(C(=O)N[C@H]2CCOc3ccccc32)cnc2c(-c3cc(Cl)cc(Cl)c3)cccc12 [Example 150, N-{8-(3,5-dichlorophenyl)-3-[(4S)-3,4-dihydro-2H-chromen-4-ylcarbamoyl]quinolin-4-yl}-N-methylglycine]
- mortality at 4 ppm (Haemonchus contortus): 80%
- mortality at 20 ppm (Haemonchus contortus): 90%
- chromatographic logP [5]: 3.1
- EC50 (C. elegans Slo-1a): 3.16 to 31.6 nM
- inhibition at 1 µg/mL [4]: > 80%
- EC50 [1]: < 0.1 µg/mL
- mortality at 20 ppm (Cooperia curticei): 100%
- EC50 [3]: < 1 µg/mL

SMILES: CN(c1c(C(=O)N[C@H]2CCOc3ccccc32)cnc2c(-c3cccc(Cl)c3Cl)cccc12)C1COC1 [Example 331, 8-(2,3-dichlorophenyl)-N-[(4S)-3,4-dihydro-2H-chromen-4-yl]-4-[methyl(oxetan-3-yl)amino]-quinoline-3-carboxamide]
- mortality at 20 ppm (Haemonchus contortus): 100%
- chromatographic logP [5]: 3.14
- EC50 (C. elegans Slo-1a): < 3.16 nM
- inhibition at 1 µg/mL [4]: > 80%
- EC50 [1]: < 0.1 µg/mL
- mortality at 20 ppm (Cooperia curticei): 90%
- EC50 [3]: < 0.1 µg/mL

SMILES: CCOc1c(C(=O)N[C@H]2CCOc3ccccc32)cnc2c(-c3cc(Cl)cc(Cl)c3)cccc12 [Example 341]
- mortality at 4 ppm (Haemonchus contortus): 80%
- mortality at 20 ppm (Haemonchus contortus): 80%
- EC50 (C. elegans Slo-1a): < 3.16 nM
- inhibition at 1 µg/mL [4]: > 80%
- inhibition at 10 µg/mL [4]: > 80%
- EC50 [1]: < 0.1 µg/mL
- mortality at 4 ppm (Cooperia curticei): 90%
- mortality at 20 ppm (Cooperia curticei): 100%
- EC50 [2]: < 0.1 µg/mL
- EC50 [3]: < 0.1 µg/mL

SMILES: CCc1c(C(=O)N[C@H]2CCOc3ccccc32)cnc2c(-c3cc(Cl)cc(Cl)c3)cccc12 [Example 350, 8-(3,5-dichlorophenyl)-N-[(4S)-3,4-dihydro-2H-chromen-4-yl]-4-ethyl quino-line-3-carboxamide]
- mortality at 4 ppm (Haemonchus contortus): 100%
- mortality at 20 ppm (Haemonchus contortus): 100%
- chromatographic logP [5]: 5.06
- EC50 (C. elegans Slo-1a): < 3.16 nM
- inhibition at 1 µg/mL [4]: > 80%
- EC50 [1]: < 0.1 µg/mL
- mortality at 4 ppm (Cooperia curticei): 100%
- mortality at 20 ppm (Cooperia curticei): 100%
- EC50 [2]: < 0.1 µg/mL
- EC50 [3]: < 0.1 µg/mL

SMILES: CCc1cc(Cl)cc(-c2cccc3c(CC)c(C(=O)N[C@H]4CCOc5ccccc54)cnc23)c1 [Example 351, 8-(3-chloro-5-ethylphenyl)-N-[(4S)-3,4-dihydro-2H-chromen-4-yl]-4-ethylquinoline-3-carboxamide]
- chromatographic logP [5]: 5.1
- EC50 (C. elegans Slo-1a): < 3.16 nM
- EC50 [1]: < 0.1 µg/mL
- EC50 [3]: < 0.1 µg/mL

SMILES: COc1c(C(=O)N[C@H]2CCOc3ccccc32)cnc2c(-c3cc(Cl)cc(Cl)c3)cccc12 [Example 373, 8-(3,5-dichlorophenyl)-N-[(4S)-3,4-dihydro-2H-chromen-4-yl]-4-methoxyquinoline-3-carboxamide]
- mortality at 4 ppm (Haemonchus contortus): 100%
- mortality at 20 ppm (Haemonchus contortus): 100%
- EC50 (C. elegans Slo-1a): < 3.16 nM
- inhibition at 1 µg/mL [4]: > 80%
- inhibition at 10 µg/mL [4]: > 80%
- mortality at 4 ppm (Cooperia curticei): 100%
- mortality at 20 ppm (Cooperia curticei): 100%
- EC50 [2]: < 1 µg/mL
- EC50 [3]: < 1 µg/mL

SMILES: O=C(N[C@H]1CCOc2ccccc21)c1cnc2c(-c3cc(Cl)cc(Cl)c3)cccc2c1N1CC(F)(F)C1 [Example 394]
- mortality at 4 ppm (Haemonchus contortus): 80%
- mortality at 20 ppm (Haemonchus contortus): 80%
- EC50 (C. elegans Slo-1a): 3.16 to 31.6 nM
- inhibition at 1 µg/mL [4]: > 80%
- EC50 [1]: < 0.1 µg/mL
- mortality at 20 ppm (Cooperia curticei): 80%
- EC50 [2]: < 0.1 µg/mL
- EC50 [3]: < 0.1 µg/mL

SMILES: O=C(N[C@H]1CCOc2ccccc21)c1cnc2c(-c3cc(Cl)cc(Cl)c3)cccc2c1-c1ccncc1 [Example 396]
- mortality at 4 ppm (Haemonchus contortus): 90%
- mortality at 20 ppm (Haemonchus contortus): 100%
- EC50 (C. elegans Slo-1a): < 3.16 nM
- inhibition at 1 µg/mL [4]: > 80%
- EC50 [1]: < 0.1 µg/mL
- mortality at 4 ppm (Cooperia curticei): 100%
- mortality at 20 ppm (Cooperia curticei): 100%
- EC50 [2]: < 0.1 µg/mL
- EC50 [3]: < 0.1 µg/mL
